{"source": "paper PMC6459586", "about": "“Structure-Based Design of MptpB Inhibitors That Reduce Multidrug-Resistant Mycobacterium tuberculosis Survival and Infection Burden in Vivo” (Journal of Medicinal Chemistry, 2018)", "key": {"[1]": {"tested_on": "M. tuberculosis H37Rv", "experiment": "Acute guinea pig model of TB infection", "assay_type": "in vivo", "conditions": "28 days of treatment, oral daily, 13 100 mg/kg, RIF 50 mg/kg"}, "[2]": {"tested_on": "PI3P on M. tuberculosis phagosomes (RAW264.7 macrophages)", "assay_type": "cell-based"}, "[3]": {"biological_target": "T1, hVHR (Homo sapiens, UniProt P51452)", "T1 construct": "GST (N, cleaved yes); made in house; host or cells: E. coli", "T1 sequence (P51452 whole entry)": "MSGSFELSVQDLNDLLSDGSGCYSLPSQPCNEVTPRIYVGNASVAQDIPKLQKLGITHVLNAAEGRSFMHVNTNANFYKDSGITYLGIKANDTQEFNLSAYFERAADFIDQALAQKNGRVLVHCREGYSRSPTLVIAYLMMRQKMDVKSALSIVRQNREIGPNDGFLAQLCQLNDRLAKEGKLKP", "experiment": "biochemical", "conditions": "read-out: IC50 hVHR (Supplementary Table 1)"}, "[4]": {"experiment": "physchem", "assay_type": "physicochemical", "conditions": "pH 7.4", "protocol": "Experimental Methods (ADME determinations).\nADME determinations for Compound 13 (data kindly supplied by LifeArc).\nLogD measurements were carried out using the shake flask method. Compound was diluted from a 10 mM DMSO stock solution into an eppendorf containing equal amounts of octanol and phosphate buffered saline (PBS) to give a final concentration of 100 µM. The tubes were shaken for 12 hours, centrifuged at 10000 rpm for 10 minutes and samples taken from the octanol and PBS layers. The samples from both layers were analysed in triplicate by LC-MS/MS (Aglient Technologies G6410 series, triple quadrupole with MM-ESI ion source) using optimised multiple reaction monitoring (MRM) scans and a standard column gradient on an Acquity UPLC BEH C8 1.7 µm column, running acetonitrile and water with 0.05% acetic acid as the mobile phase. The ratios of areas of the peaks were used to calculate the Log D in accordance with the equation:\nLog D = Log10(Area-TL/Area BL)\nPBS pH7.4 in a filtration plate at a target concentration of 200 µM giving a final solution composition of 98:2 PBS:DMSO. […] The UV absorbance for these solutions was read across 230-400 nM at 1 nM intervals using a T ECAN Safire II plate reader and a suitable UV wavelength chosen around the UV maximum of each compound. […]"}, "[5]": {"tested_on": "BCG", "assay_type": "cell-based, Mycobacterium bovis Bacille Calmette-Guerin"}, "[6]": {"tested_on": "M. tuberculosis", "assay_type": "in vivo, guinea pig"}, "[7]": {"biological_target": "T2, hPTP1B (Homo sapiens, UniProt P18031)", "T2 construct": "GST (N, cleaved yes); made in house; host or cells: E. coli", "T2 sequence (P18031 whole entry)": "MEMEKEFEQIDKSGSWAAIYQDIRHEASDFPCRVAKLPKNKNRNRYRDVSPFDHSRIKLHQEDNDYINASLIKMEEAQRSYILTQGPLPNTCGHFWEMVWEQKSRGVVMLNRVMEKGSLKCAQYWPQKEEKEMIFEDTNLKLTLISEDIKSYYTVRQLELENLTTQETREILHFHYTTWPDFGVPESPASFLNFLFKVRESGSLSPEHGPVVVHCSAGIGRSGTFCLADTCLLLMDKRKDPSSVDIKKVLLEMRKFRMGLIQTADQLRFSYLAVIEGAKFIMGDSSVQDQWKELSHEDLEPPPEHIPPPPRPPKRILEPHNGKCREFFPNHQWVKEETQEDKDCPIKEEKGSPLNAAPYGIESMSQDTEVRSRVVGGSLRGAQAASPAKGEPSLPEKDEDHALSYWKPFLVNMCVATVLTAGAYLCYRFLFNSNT", "experiment": "biochemical", "conditions": "read-out: IC50 hPTP1B (Supplementary Table 1)"}, "[8]": {"tested_on": "M. tuberculosis H37Rv in human macrophages (THP1)", "assay_type": "cell-based"}, "[9]": {"experiment": "Pharmacokinetic evaluation in guinea pigs", "assay_type": "in vivo", "conditions": "male, Durkin Hartley, guinea pig, in vivo", "protocol": "Guinea pig males (Durkin Hartley) were used to evaluate the pharmacokinetics and tissue distribution of compounds. The route of administration was either intraperitoneal (ip) or oral (po) with dosage varying from 3.5 to 8 mg kg^–1 (op) and 2.5–4 mg kg^–1 (ip). In each case 4 samples were collected per time point at 0.1, 0.5, 2, 4, and 8 h post dose for ip and 0.25, 0.5, 2, 4, and 8 h post dose for po. Compounds were prepared in 10% DMSO, 5% Cremaphor, and 85% physiological saline for IP administration or 0.5% (v/v) Tween 80, 99.5% (v/v) 0.5% methylcellulose for oral administration. Tissue samples (n = 4) from lung, liver, and kidney were collected at the end of the study and snap frozen prior to bioanalysis."}, "[10]": {"tested_on": "BCG in mouse macrophages (J774)", "assay_type": "cell-based, Mycobacterium bovis Bacille Calmette-Guerin"}, "[11]": {"tested_on": "MDR strain (Beijing-W) in human macrophages (THP1)", "assay_type": "cell-based, M. tuberculosis"}, "[12]": {"conditions": "guinea pig, 50 or 100 mg/kg orally once daily for 7 days"}, "[13]": {"conditions": "chronic model, 28 days of treatment from day 28, oral daily, 13 100 mg/kg, RIF 50 mg/kg"}, "[14]": {"conditions": "chronic model, 28 days of treatment from day 28, oral daily, 13 100 mg/kg, RIF 50 mg/kg, listed as Cpd 13"}}, "note": "Entries after “also recorded” stand apart in the source; their conditions may differ. Where two headings read alike, the source gives them in different places.", "data": [{"smiles": "Cc1onc(C(=O)O)c1-c1cccc(-c2cc(Cl)c(O)c(Cl)c2)c1", "note": "[Compound 13, 4-(3′,5′-Dichloro-4′-hydroxy-3-biphenyl)-5-methylisoxazole-3-carboxylic Acid]", "values": [{"measurement": "Lungs infection burden, average", "setting": "[1]", "result": 5.9, "unit": "log CFU"}, {"measurement": "Lungs log reduction relative to vehicle", "setting": "[1]", "result": 0.9, "unit": "log"}, {"measurement": "Spleen infection burden, average", "setting": "[1]", "result": 5.6, "unit": "log CFU"}, {"measurement": "Spleen log reduction relative to vehicle", "setting": "[1]", "result": 0, "unit": "log"}, {"measurement": "duration of the peak of PI3P on phagosomes", "setting": "[2]", "result": "up to 12 min"}, {"measurement": "IC50", "setting": "[3]", "result": "> 100", "unit": "µM"}, {"measurement": "logD", "setting": "[4]", "result": 4}, {"measurement": "effect on extracellular growth of BCG", "setting": "[5]", "result": "does not affect extracellular bacterial growth; also recorded: not affected"}, {"measurement": "Lungs infection burden, average", "setting": "[6]; [13]", "result": 4.7, "unit": "log CFU"}, {"measurement": "Lungs log reduction relative to vehicle", "setting": "[6]; [13]", "result": "at least 1 log"}, {"measurement": "Spleen infection burden, average", "setting": "[6]; [13]", "result": 4.2, "unit": "log CFU"}, {"measurement": "Spleen log reduction relative to vehicle", "setting": "[6]; [13]", "result": "at least 1 log"}, {"measurement": "Lungs log reduction relative to vehicle", "setting": "[6]; [14]", "result": 1.0, "unit": "log"}, {"measurement": "Spleen log reduction relative to vehicle", "setting": "[6]; [14]", "result": 1.0, "unit": "log"}, {"measurement": "Lungs weight % change relative to Vehicle", "setting": "[6]; guinea pig, in vivo", "result": -19, "unit": "%"}, {"measurement": "Lungs weight, average", "setting": "[6]; guinea pig, in vivo", "result": 4.4, "unit": "g"}, {"measurement": "Spleen weight % change relative to Vehicle", "setting": "[6]; guinea pig, in vivo", "result": -19, "unit": "%"}, {"measurement": "Spleen weight, average", "setting": "[6]; guinea pig, in vivo", "result": 2.1, "unit": "g"}, {"measurement": "histopathology of lungs and spleens", "setting": "[6]; guinea pig, in vivo, 100 mg/kg", "result": "improvement in the pathology"}, {"measurement": "IC50", "setting": "[7]", "result": "> 100", "unit": "µM"}, {"measurement": "reduction of intracellular mycobacterial burden, H37Rv", "setting": "[8]", "result": "up to 63%"}, {"measurement": "half-life", "setting": "[9]; ip, 4 mg/kg, IP, dose mg/kg: 13 4, 5 2.5, 8 1.25, 9 2.5", "result": 1.4, "unit": "h"}, {"measurement": "half-life", "setting": "[9]; po, 8 mg/kg, oral, dose mg/kg: 13 8, 5 5, 8 3.5, 9 5", "result": 5, "unit": "h"}, {"measurement": "reduction in intracellular mycobacterial (BCG) burden", "setting": "[10]", "result": "up to 84%"}, {"measurement": "reduction of intracellular mycobacterial burden, MDR strain (Beijing-W)", "setting": "[11]", "result": "up to 74%"}, {"measurement": "adverse drug effects (tolerability)", "setting": "[12]", "result": "no adverse drug effects"}, {"measurement": "weight increases during the tolerability trial", "setting": "[12]", "result": "> 5", "unit": "%"}]}]}
